Experimental data as given in paper PMC4673326, “Design and Synthesis of a Novel Cationic Peptide with Potent and Broad-Spectrum Antimicrobial Activity” (BioMed Research International, 2015).
Ends that are not written are not given here.

Columns and labels:
Type in all cases: cell-based
[1] = tested on: Klebsiella; experiment: MIC, serial dilution method; details: Klebsiella aeruginosa (so in the source); serial dilution 512-0.5 μg/mL, Luria-Bertani, 37°C, 16 to 18 hours; mean of three independent experiments in duplicate
Protocol: (§1) Two Gram-positive bacteria, 3 Gram-negative bacteria, and 2 fungi were selected to measure antibacterial activity of peptides. The strains were provided by Department of Microbiology in China Pharmaceutical University and were stored at 4°C until use.
Antimicrobial activity was evaluated using an inhibition zone assay or determination of the minimal inhibitory concentration (MIC) value with minor modifications as described previously: • Inhibition zone assay: agar plates were seeded with strains (about 10^6 cells in 10 mL of 1% agar medium). Wells (3 mm in diameter) were punched out and a 5 μL peptide sample dissolved in water was loaded. Controls were loaded with water. After incubation at 37°C overnight, the diameter of the inhibition zone was determined. • Determination of the MIC value: MICs were determined using a standard serial dilution method in appropriate medium for each bacterial strain listed in Table 3. In brief, 1 mL of different peptides dilution solutions was poured into a series of sterile plates, and then 9 mL appropriate medium that was preincubated at 37°C was added into a plate and was mixed gently to reach various concentrations (512, 256, 128, 64, 32, 16, 8, 4, 2, 1, and 0.5 μg/mL). Bacteria were added to the 96-well plates. The amount of bacteria for each spot is approximately 10^4 to 10^5 CFU/mL. After incubating the inoculated plate at 37°C for 16 to 18 hours, MICs were determined as the lowest peptide concentration that inhibited bacterial growth. […]

[2] = tested on: Escherichia coli
Protocol: as §1
(§2) Antimicrobial activity was evaluated using an inhibition zone assay or determination of the minimal inhibitory concentration (MIC) value with minor modifications as described previously: • Inhibition zone assay: agar plates were seeded with strains (about 10^6 cells in 10 mL of 1% agar medium). Wells (3 mm in diameter) were punched out and a 5 μL peptide sample dissolved in water was loaded. Controls were loaded with water. After incubation at 37°C overnight, the diameter of the inhibition zone was determined. • Determination of the MIC value: MICs were determined using a standard serial dilution method in appropriate medium for each bacterial strain listed in Table 3. In brief, 1 mL of different peptides dilution solutions was poured into a series of sterile plates, and then 9 mL appropriate medium that was preincubated at 37°C was added into a plate and was mixed gently to reach various concentrations (512, 256, 128, 64, 32, 16, 8, 4, 2, 1, and 0.5 μg/mL). Bacteria were added to the 96-well plates. The amount of bacteria for each spot is approximately 10^4 to 10^5 CFU/mL. After incubating the inoculated plate at 37°C for 16 to 18 hours, MICs were determined as the lowest peptide concentration that inhibited bacterial growth. All MICs were determined in two independent experiments performed in duplicate.

[3] = tested on: Aspergillus niger
Protocol: as §1, §2

[4] = tested on: Pseudomonas aeruginosa
Protocol: as §1, §2

[5] = tested on: Staphylococcus epidermidis
Protocol: as §1, §2

[6] = tested on: Staphylococcus aureus
Protocol: as §1, §2

[7] = tested on: human red blood cells; experiment: Hemolytic assay; details: human RBC in PBS pH 7.4, 37°C, 1 h, absorbance 415 nm
Protocol: Hemolytic activity was determined by the procedure of Yoshida et al. with slight modifications. Fresh human blood (1 mL) was centrifuged at 1000 ×g for 5 min and the precipitates were collected and then washed 3 times with phosphate buffered saline (PBS) (pH 7.4). Precipitates were resuspended in 4-fold volumes of PBS. Then, 995 μL of PBS solution containing serial diluted peptides was added to a human erythrocyte solution of 5 μL. The resulting solution was incubated at 37°C for 1 h and was centrifuged at 1000 ×g for 5 min. The supernatant was diluted 5-fold with PBS and was monitored at 415 nm using a UV spectrophotometer. Zero hemolysis (blank) and 100% hemolysis were determined in PBS and 1% Triton X-100, respectively.

Substance | MIC [1] | MIC [2] | MIC [3] | MIC [4] | MIC [5] | MIC [6] | hemolysis ([7]; 100% = 1% Triton X-100, tested at 10, 40, 160 and 640 μg/mL, value holds even at 640 μg/mL) | concentration causing the lysis of whole erythrocytes [7]
RRWWRFPPPRFPPRFPPP-NH2 [RFPP-18] | >512 mg/L | 128 mg/L | >512 mg/L | 256 mg/L | 512 mg/L | >512 mg/L | – | –
KWKLFKKIWGKPV-NH2 [KPV-13] | >512 mg/L | 512 mg/L | >512 mg/L | >512 mg/L | 32 mg/L | >512 mg/L | – | –
RRWWRFPRFFRRFFR-NH2 [RFFR-15] | >512 mg/L | 256 mg/L | >512 mg/L | >512 mg/L | 128 mg/L | 64 mg/L | – | –
KWKYPKLLKKLLK [KW-13] | 128 mg/L | 64 mg/L | 256 mg/L | 128 mg/L | 4 mg/L | 16 mg/L | < 1% | –
KFRWGKPV-NH2 [KPV-8] | >512 mg/L | >512 mg/L | >512 mg/L | >512 mg/L | >512 mg/L | >512 mg/L | – | –
Melittin [reference compound] | – | – | – | – | – | – | – | below 40 μg/mL
KWKKPKLLKKLLK [KWKK-13] | >512 mg/L | 256 mg/L | >512 mg/L | >512 mg/L | >512 mg/L | >512 mg/L | – | –
